Measurements as given in ChEMBL document CHEMBL5608141, “Identification of compartment-specific drug sensitivities in CRC organoid-stroma co-cultures” (2024).

How the values were obtained:
Format in all cases: functional, Homo sapiens
Parameters in all cases: dose or concentration left out as unconfirmed
Colon cancer organoid [1] = assay: Identification of compartment-specific drug sensitivities in O06 CRC organoid-stroma F06 CAF co-cultures. Organoid is transduced with Lucferase2-P2A-EGFP lentivirus, fibroblast with Renilla-dsRed lentivirus. Dual-Glo Luciferase assay is used to report viability data.
Colon cancer organoid [2] = assay: Identification of compartment-specific drug sensitivities in O14 CRC organoid-stroma F14 CAF co-cultures. Organoid is transduced with Lucferase2-P2A-EGFP lentivirus, fibroblast with Renilla-dsRed lentivirus. Dual-Glo Luciferase assay is used to report viability data.
Colon cancer organoid [3] = assay: Identification of compartment-specific drug sensitivities in O20 CRC organoid-stroma F20 CAF co-cultures. Organoid is transduced with Lucferase2-P2A-EGFP lentivirus, fibroblast with Renilla-dsRed lentivirus. Dual-Glo Luciferase assay is used to report viability data.
[4] = Transduced with Lucferase2-P2A-EGFP lentivirus
[5] = Transduced with Renilla-dsRed lentivirus

| Compound | Cell Viability (Colon cancer organoid [1]; [4]) | Cell Viability (Colon cancer organoid [1]; [5]) | Cell Viability (Colon cancer organoid [2]; [4]) | Cell Viability (Colon cancer organoid [2]; [5]) | Cell Viability (Colon cancer organoid [3]; [4]) | Cell Viability (Colon cancer organoid [3]; [5]) |
| --- | --- | --- | --- | --- | --- | --- |
| O=C(Nc1cccnn1)N1CCC(=Cc2cccc(Oc3ccc(C(F)(F)F)cn3)c2)CC1 | 103.919% | 125.543% | 96.3845% | 120.944% | 75.4997% | 114.419% |
| C[C@@H]1CC(=O)Nc2cccc(-c3ccc4c(c3)c(-c3cnn(C)c3)nn4C)c2N1 | 96.7982% | 166.358% | 127.46% | 126.975% | 69.4002% | 148.573% |
| CNC(=O)c1ccc(Nc2ncc(C(F)(F)F)c(NCc3nccnc3N(C)S(C)(=O)=O)n2)cc1 [DEFACTINIB] | 119.668% | 427.019% | 78.9872% | 82.2867% | 57.0475% | 79.7534% |
| Cc1sc2c(c1C)C(c1ccc(Cl)cc1)=N[C@H](CC(=O)OC(C)(C)C)c1nnc(C)n1-2 | 107.283% | 109.974% | 146.34% | 95.1093% | 99.6993% | 113.657% |
| N#CC1(c2ccccn2)CCN(Cc2cc(C(=O)N3CCCC3)c(=O)n3ccccc23)CC1 [MSD-M1PAM-NC] | 85.4848% | 72.6928% | 93.1425% | 88.6945% | 103.159% | 109.338% |
| COc1cc(-c2cn([C@H]3CCc4c(F)cccc4N(CC(F)(F)F)C3=O)nn2)ccc1-n1cnc(C)c1 | 62.2519% | 94.2085% | 128.088% | 98.8677% | 119.382% | 109.286% |
| CC1=C(C)C(=O)C(C(C)(C)CC(=O)N(CCCCSC[C@H]2O[C@@H](n3cnc4c(N)ncnc43)[C@H](O)[C@@H]2O)Cc2cccc(-c3ccc(Cl)cc3)c2)=C(C)C1=O | 117.447% | 138.552% | 65.9332% | 97.7144% | 100.369% | 114.813% |
| O=C(Nc1cccnn1)N1CC(C/C=C/c2cncc(Oc3ccc(C(F)(F)F)cn3)n2)C1 | 130.234% | 92.9489% | 132.074% | 108.992% | 97.9448% | 112.944% |
| C=CC(=O)Nc1ccc2[nH]c(=O)n(C3CCN(Cc4ccc(-c5nc6cc[nH]c(=O)c6cc5-c5ccccc5)cc4)CC3)c2c1 [Borussertib] | 51.8578% | 132.383% | 60.6786% | 71.4907% | 47.6492% | 149.193% |
| CC(=O)c1cc(-c2cc(C(=O)NC3CC3)ccc2C)c2ncccn12 | 95.4153% | 118.795% | 131.291% | 101.161% | 68.6867% | 121.421% |
| COc1ccc2c(c1)O[C@@H](c1ccc(OC)c(OC)c1)C[C@H]2NC(=O)C1(c2ccc3c(c2)OC(F)(F)O3)CC1 [A-1596586] | 95.9961% | 117.187% | 83.2966% | 94.4694% | 84.651% | 101.93% |
| C[C@@H](NC(=O)Nc1cc2[nH]ncc2c(CO)n1)c1ccccc1 [ERKi] | 82.7933% | 113.572% | 56.1161% | 76.4372% | 50.0756% | 135.339% |
| CN(C)CC#Cc1ccc(OCCCc2sc(N3CCc4cccc(C(=O)Nc5nc6ccccc6s5)c4C3)nc2C(=O)O)c(F)c1 [A-1155463] | 0.3385% | 128.541% | 2.034% | 67.3537% | 1.1769% | 177.943% |
| C=CC(=O)N1CCC([C@@H]2CCNc3c(C(N)=O)c(-c4ccc(Oc5ccccc5)cc4)nn32)CC1 [ZANUBRUTINIB] | 36.1998% | 136.235% | 25.5759% | 117.13% | 8.4337% | 202.782% |
| C[C@H](c1ccnc(Nc2nc3ccc(-c4cc(N(C)C)ncn4)cc3[nH]2)c1)N1CCN(C(=O)CC(F)(F)F)CC1 [BAY-985] | 137.072% | 142.411% | 130.529% | 136.274% | 129.711% | 125.86% |
